Where a name gives a salt, the structure may show the parent alone.

For the experiment, the target named is Sphingosine 1-phosphate receptor 3 (Homo sapiens, UniProt Q99500). Kind of experiment: S1P3 reporter-cell activation, dose response, counter-screen for 5HT1E agonist project (AID 730). Background: The purpose of a counterscreen is to sort out artefacts and off-target activity.
Sequence of Sphingosine 1-phosphate receptor 3 (Q99500 whole entry): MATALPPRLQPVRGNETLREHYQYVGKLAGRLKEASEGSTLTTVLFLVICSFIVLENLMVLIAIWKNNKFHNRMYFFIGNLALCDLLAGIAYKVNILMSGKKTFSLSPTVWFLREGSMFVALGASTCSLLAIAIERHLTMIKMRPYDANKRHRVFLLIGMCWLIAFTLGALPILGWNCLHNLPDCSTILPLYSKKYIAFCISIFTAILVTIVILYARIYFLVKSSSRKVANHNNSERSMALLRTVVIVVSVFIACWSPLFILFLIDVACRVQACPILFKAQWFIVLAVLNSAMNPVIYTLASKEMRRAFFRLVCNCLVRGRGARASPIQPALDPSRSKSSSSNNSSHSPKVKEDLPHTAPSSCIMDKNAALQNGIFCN
For `CN1CCN2c3ccccc3Cc3ccccc3C2C1` (stereo not given) [MIANSERIN HYDROCHLORIDE], the 50% effective concentration (EC50) is > 40 µM.

`Cc1c(CN2CCN(c3cccc(C(F)(F)F)c3)CC2)c(=O)n(-c2ccccc2)n1C`: the EC50 is > 40 µM.

As for `CN1CCN(C(N=O)c2nonc2N)CC1` (stereo not given), the EC50 is > 40 µM.

For the molecule `CCN(CC)c1nc(N2CCOCC2)c(C#N)c2c1CN(C)CC2` [1-(diethylamino)-7-methyl-3-morpholin-4-yl-6,8-dihydro-5H-2,7-naphthyridine-4-carbonitrile], the EC50 was > 40 µM.

In the case of `CN1CC=C(c2c[nH]c3ccccc23)CC1` [MLS000120058], the EC50 was > 40 µM.

With `CCOC(=O)C1CCN(C(=O)Cc2c(C(=O)O)n(C)c3ccccc23)CC1` [3-{2-[4-(ethoxycarbonyl)piperidin-1-yl]-2-oxoethyl}-1-methyl-1H-indole-2-carboxylic acid], the EC50 was > 40 µM.

`CCOC(=O)c1cc2ccc(OC(=O)c3ccco3)cc2oc1=O` [ethyl 7-(2-furoyloxy)-2-oxo-2H-chromene-3-carboxylate] registered an EC50 of 10.5 µM.

With `CNCCc1c[nH]c2ccccc12` [N-OMEGA-METHYLTRYPTAMINE], the EC50 is > 40 µM.

On to `CCCCN(C)CCCNC(=O)Cn1c(=O)sc2ccccc21` [N-{3-[butyl(methyl)amino]propyl}-2-(2-oxo-1,3-benzothiazol-3(2H)-yl)acetamide], for which the EC50 was > 40 µM.

Take `CCOC(=O)c1oc2ccccc2c1NC(=O)c1cc(OC)cc(OC)c1` [ethyl 3-[(3,5-dimethoxybenzoyl)amino]-1-benzofuran-2-carboxylate]: the EC50 is > 40 µM.

As to `CCc1ccc(NC(=O)Cn2c(SC)nc3ccccc32)cc1` [N-(4-ethylphenyl)-2-[2-(methylthio)-1-benzimidazolyl]acetamide], the EC50 is > 40 µM.

Take `COc1ccc(N(CC(=O)NC2CCCC2)C(=O)Cn2nnc(-c3ccc(C)cc3)n2)cc1OC` [N-[2-(cyclopentylamino)-2-oxoethyl]-N-(3,4-dimethoxyphenyl)-2-[5-(4-methylphenyl)tetrazol-2-yl]acetamide]: the concentration for a half-maximal effect (EC50) is > 40 µM.

With `Cn1cc(C(Cc2ccccc2)N=O)c2ccccc21` (stereo not given) [1-(1-methyl-3-indolyl)-2-phenylethanone oxime], the EC50 was > 40 µM.

For the molecule `CSc1nc2ccc(NC(=O)C3CCCO3)cc2s1` (stereo not given) [N-[2-(methylthio)-1,3-benzothiazol-6-yl]-2-oxolanecarboxamide], the EC50 is > 40 µM.

`CCOC(=O)C1C(C)=NC(=O)NC1c1ccc(OCC(=O)Nc2ccccc2)c(OC)c1` (stereo not given) [SMR000093032]: the EC50 is > 40 µM.

In the case of `Cc1[nH]c2c(C(F)(F)F)cccc2c1CCN` [2-[2-methyl-7-(trifluoromethyl)-1H-indol-3-yl]ethanamine;hydrochloride], the concentration for a half-maximal effect (EC50) is > 40 µM.

As to `CCCCc1ccc2[nH]cc(CCN)c2c1`, the EC50 is > 40 µM.

Consider `CC[C@@H](CO)NC(=O)[C@@H]1C=C2c3cccc4c3c(cn4C)C[C@H]2N(C)C1` [METHYSERGIDE MALEATE], for which the EC50 was > 40 µM.

Take `CCOC(=O)c1c(C)nc(-c2ccccc2)nc1NC(=O)CC` [ethyl 4-methyl-2-phenyl-6-(propionylamino)pyrimidine-5-carboxylate]: the half-maximal effective concentration (EC50) is > 40 µM.

Consider `Cc1cccc(N2CCN(C(=O)Cc3c(C(=O)O)[nH]c4ccc(Cl)cc34)CC2)c1C` [5-chloranyl-3-[2-[4-(2,3-dimethylphenyl)piperazin-1-yl]-2-oxidanylidene-ethyl]-1H-indole-2-carboxylic acid], for which the EC50 was > 40 µM.

With `CCc1nn(C(C)C(=O)NCCN2CCN(c3cccc(C)c3C)CC2)c(=O)c2cc3occc3n12` (stereo not given) [SMR000029605], the EC50 is > 40 µM.

For `COc1ccc2[nH]cc(CCN(C)C)c2c1` [3-(2-DIMETHYLAMINOETHYL)-5-METHOXYINDOLE], the EC50 was > 40 µM.

Turning to `CN(C)CCOC(=O)c1cn(Cc2ccccc2)c2ccccc12` [2-(dimethylamino)ethyl 1-(phenylmethyl)indole-3-carboxylate;hydrochloride], the EC50 is > 40 µM.

Consider `COc1ccc(CN2CCN(c3ccccc3F)CC2)c(OC)c1`, for which the EC50 is > 40 µM.

On to `O=C(Nc1cccc(-c2cn3ccsc3n2)c1)c1ccccc1` [N-[3-(6-imidazo[2,1-b]thiazolyl)phenyl]benzamide], for which the concentration giving a half-maximal response (EC50) is > 40 µM.

For `Cc1cccc(NC(=O)C2CCCN(C(=O)Nc3ccccc3)C2)c1C` (stereo not given) [SMR000006943], the concentration giving a half-maximal response (EC50) is > 40 µM.

In the case of `CCOC(=O)C1CCN(C(c2cccnc2)c2c(NC(=O)c3ccco3)sc(C)c2C)CC1` (stereo not given) [SMR000019649], the concentration giving a half-maximal response (EC50) was > 40 µM.

Regarding `Cc1[nH]c2c(Cl)cccc2c1CCN`, the EC50 was > 40 µM.

For `Cc1noc(C)c1COc1ccc(C(=O)OC(C)C(=O)Nc2ccc(N3CCOCC3)cc2)cc1` (stereo not given) [[1-[(4-morpholin-4-ylphenyl)amino]-1-oxidanylidene-propan-2-yl] 4-[(3,5-dimethyl-1,2-oxazol-4-yl)methoxy]benzoate], the EC50 is > 40 µM.

On to `CCCCN(CC)Cc1ccc(CNC(=O)Nc2ccc(OC)cc2OC)o1` [1-[[5-[[butyl(ethyl)amino]methyl]furan-2-yl]methyl]-3-(2,4-dimethoxyphenyl)urea], for which the half-maximal effective concentration (EC50) was > 40 µM.

Consider `CN(C)CCCn1c(NC(=O)C2CCCCC2)nc2ccccc21`, for which the EC50 was > 40 µM.

On to `CCN1CC=C(c2c[nH]c3ccccc23)CC1` [MLS000093713], for which the EC50 is > 40 µM.

With `O=S(=O)(c1cccc(Cl)c1)N1CCCC1` [MLS000063405], the EC50 is > 40 µM.

In the case of `C[N+]1=C2CCCCCN2C(O)(c2ccccc2)C1` (stereo not given) [MLS000048587], the EC50 is > 40 µM.

In the case of `COc1cc(CN2CCN(c3cccc(C)c3C)CC2)cc(OC)c1O` [4-[[4-(2,3-dimethylphenyl)piperazin-1-yl]methyl]-2,6-dimethoxy-phenol], the EC50 is > 40 µM.

For the molecule `Cc1cc(C(C)(C)C)cc(C)c1CC1=NCCN1` [SMR000058526], the EC50 was > 40 µM.

Take `Cn1c(-c2ccccc2)cnc1SCc1nc(O)c2ccccc2n1` [MLS000077265]: the EC50 is > 40 µM.

Turning to `c1ccc2sc(C3CCCNC3)nc2c1` (stereo not given) [SMR000067014], the concentration for a half-maximal effect (EC50) is > 40 µM.

With `O=C(NCc1ccccc1)NC1(C(=O)N2CCCC2)CCCCC1` [1-Benzyl-3-[1-(pyrrolidine-1-carbonyl)-cyclohexyl]-urea], the EC50 was > 40 µM.

Turning to `Cc1[nH]c2ccccc2c1C1=CCNCC1` [MLS000045807], the EC50 is > 40 µM.

As to `O=C(COC(=O)CCC1CCCC1)Nc1ccc(Cl)cn1` [[2-[(5-chloropyridin-2-yl)amino]-2-oxoethyl] 3-cyclopentylpropanoate], the EC50 was > 40 µM.

For `NCCc1c[nH]c2ccc(F)cc12` [MLS000047815], the EC50 is > 40 µM.

Regarding `CC1CN(c2nnnn2-c2ccccc2)CC(C)O1` (stereo not given) [SMR000109556], the EC50 was > 40 µM.

With `O=C(O)C1CCCCC1C(=O)NCCc1c[nH]c2ccccc12` (stereo not given) [2-[2-(1H-indol-3-yl)ethylcarbamoyl]cyclohexane-1-carboxylic acid], the EC50 was > 40 µM.

For `CC(CCc1ccccc1)NC(=O)CSc1nc(N)cc(N)n1` (stereo not given) [MLS000254508], the EC50 is > 40 µM.

`COC(=O)CC(=O)Cc1nc(N)nc(Nc2ccc(C)c(C)c2)n1` [4-[4-amino-6-(3,4-dimethylanilino)-1,3,5-triazin-2-yl]-3-oxobutanoic acid methyl ester]: the EC50 was > 40 µM.

Turning to `c1ccc(N2CCN(Cc3cn4cccnc4n3)CC2)cc1`, the EC50 is > 40 µM.

For `CC(=O)Nc1ccc(S(=O)(=O)N(C)c2ccc(O)cc2)cc1` [MLS000081936], the EC50 was > 40 µM.

Regarding `Cc1cc(C(C)(C)C)c(O)c(C)c1CC1=NCCN1` [SMR000059324], the EC50 was > 40 µM.

Regarding `C1=C(c2c[nH]c3ccccc23)CCNC1`, the EC50 was > 40 µM.

As a reminder, the EC50 is the midpoint of the concentration-response curve. High values mean a need for much substance, low ones an effect from little substance.

For the origin of these results see BindingDB's records for doi:10.7270/Q2PN941W (The Scripps Research Institute Molecular Screening Center, 2007).
